Source: ChEMBL document CHEMBL1137230, “Structure-based exploration of cyclic dipeptide chitinase inhibitors” (2004)

Columns and labels:
Saccharomyces cerevisiae [1] = assay: Cell aggregates after incubation of compound with Saccharomyces cerevisiae strains as measure of chitinase inhibitory activity; type: functional
Saccharomyces cerevisiae [2] = assay: Cell aggregates after mild sonication of compound with Saccharomyces cerevisiae strains as measure of chitinase inhibitory activity; type: functional

Row | Compound | Cell aggregates (Saccharomyces cerevisiae [1]) | Cell aggregates (Saccharomyces cerevisiae [2])
1 | O=C1N[C@@H](Cc2cnc[nH]2)C(=O)N2CCC[C@@H]12 | 90 | 32.7
2 | O=C1N[C@@H](Cc2ccc(O)cc2)C(=O)N2CCC[C@@H]12 | 77.5 | 33.9
3 | O=C1NCC(=O)N2CCC[C@@H]12 [CYCLO(PROLYLGLYCYL)] | 75.7 | 33.2
